One substance from US10130677B2, “Antimicrobial peptide and uses thereof” (priority 2013, dated 2018) can be followed below.

Read-outs that look alike come from different tables or passages of the source. Where only a bound is given, the exact number is not on record here.

One may read the IC50 as the point on the concentration scale where inhibition reaches its midpoint. The IC90 is the concentration needed for an effect of 90%.

Experiment [1] relates to UV-killed S. aureus JAR060131-induced IL-8 production. As to the kind of experiment: S. aureus neutralization in whole human blood. It is filed as cell-based. Particulars: UV-killed S. aureus JAR060131-induced IL-8; blood from one donor. As to the method: (§1) Peptides were pre-incubated with 500 ng/ml LPS (E. coli 054) or 2 mg/ml LTA (S. aureus, endotoxin-free) or 1×10^9 CFU/ml of UV-killed S. aureus JAR060131 for 30 min at 37° C. Diluted whole human blood was stimulated with the peptide-LPS/LTA/S. aureus mixtures for 20 hours at 37° C. IL-12p40 and IL-8 levels in supernatants were determined using ELISA.

For another experiment, the system named is A. niger PagsA-lux. Briefly: Effect on fungal growth. It is filed as cell-based, Aspergillus niger. As to the method: The effect of the peptides on fungal growth was assessed using Aspergillus niger. Peptides were incubated with 7.5×10^4 spores/ml of A. niger PagsA-lux in PBS without or with addition of pooled human plasma at a final concentration of 25%. As positive control, spores were treated with the antifungal caspofungin (Cancidas). Absorbance was measured over time and at 16 hours, fungal growth was visualized using light microscopy.

The test system of experiment [2] is methicillin resistant S. aureus (MRSA) LUH14616. It is filed as cell-based, Staphylococcus aureus. As to the method:
(§2) Peptides were incubated with 1×10^6 CFU/ml of a mid-logarithmic culture of S. aureus JAR060131, methicillin resistant S. aureus (MRSA) LUH14616, Staphylococcus epidermidis RP62a, and Pseudomonas aeruginosa PAO1 in PBS without or with addition of pooled human plasma (Sanquin, Amsterdam, the Netherlands) at a final concentration of 50%. Antimicrobial activity is expressed as the 99.9% lethal concentration (LC99.9), i.e., the lowest peptide concentration which killed ≥99.9% of bacteria after 2 hours of incubation at 37° C. under shaking conditions.

Experiment [3] relates to LPS (E. coli 054)-induced IL-12p40 production. Briefly: LPS neutralization in whole human blood. It is filed as cell-based.
From the text: (§3) The term “anti-inflammatory activity” of a polypeptide as used herein refers to inhibiting, reducing or preventing an inflammatory response in a subject that has been infected by microbes, e.g. bacteria, viruses, fungi, and/or parasites. Anti-inflammatory activity of polypeptides of the invention is achieved by inhibiting, reducing or preventing the release of pro-inflammatory microbial compounds, such as lipoteichoic acid (LTA), peptidoglycan (PG) and/or lipopolysaccharides (LPS). Anti-inflammatory activity can be measured by methods known in the art. Examples of such method are a LPS neutralization assay and a LTA neutralization assay as described in the Examples of this application. In such method, a polypeptide of the invention is mixed with a fixed concentration of LPS or LTA, such as 500 ng/ml LPS or 2 mg/ml LTA, and incubated for 30 min. Thereafter, these mixtures were added to diluted fresh human whole blood and 20 hours thereafter the level of cytokines (e.g. 1L-8 for LTA and 1L-12p40 for LPS) in the blood sample are measured by ELISA.
as §1

The subject of a further experiment is Candida albicans Y-O1. It is filed as cell-based. As to the method: Peptides were incubated with 1×10^5 cells/ml of a mid-logarithmic culture of Candida albicans Y-O1, without or with addition of pooled human plasma at a final concentration of 50%. Antimicrobial activity is expressed as the 99% lethal concentration (LC99), i.e., the lowest peptide concentration at which ≥99% of cells were killed after 2 hours of incubation at 37° C. under shaking conditions.

The test system of experiment [4] is stationary phase S. aureus JAR060131. It is filed as cell-based, Staphylococcus aureus. Here is the method: Bacteria were stored at −80° C. until use. Inoculi of mid log phase bacteria were prepared by incubating isolated bacterial colonies from blood agar plates in Tryptic Soy Broth (TSB) medium (Becton Dickinson, Le Pont de Clax, France) for 2.5 hours and then diluted to the concentration needed. Stationary phase S. aureus JAR060131 was obtained from 18-20 hour cultures.
To assess the antimicrobial activity of the peptides towards stationary phase bacteria, peptides were incubated under the conditions described above with 1×10^6 CFU/ml of stationary phase S. aureus JAR060131, obtained from 18-20 hour cultures.

Experiment [5] deals with Staphylococcus epidermidis RP62a. It is filed as cell-based. As to the method: as §2
Experiment [6] concerns Pseudomonas aeruginosa PAO1. It is filed as cell-based. Here is the method:
as §2

In experiment [7] the test system is LTA (S. aureus)-induced IL-8 production. As to the kind of experiment: LTA neutralization in whole human blood. It is filed as cell-based. Conditions: LTA-induced IL-8; blood from one donor.
From the text: as §3, §1

Another experiment relates to S. aureus JAR060131. It is filed as cell-based, Staphylococcus aureus. Conditions: for IC99.9: approx. 1 × 10^6 CFU/ml S. aureus JAR, within 2 hrs (Table 2). As to the method: Polypeptides of the invention preferably have an in vitro IC99.9 of at most 150 μM after 2 hours at 37° C. against at least one microbial species in the presence of 50% plasma. Said IC99.9 is preferably determined in accordance with a method for determining the antimicrobial activity as described herein in the Examples. Said method described in the Examples for determining antimicrobial activity of microbes not associated with biofilm involves the mixing of 50 microL of a solution of a polypeptide in PBS with addition of human plasma at a final concentration of 50% and 20 microL of bacterial suspension with 5×10^6 CFU per mL of PBS in a well. After incubation of this mixture for 2 hours at 37° C. under shaking conditions, a sample is used for assessment of the bacterial counts. The lowest peptide concentration at which there is 99.9% of bacteria killed, is called the inhibitory concentration (IC) 99.9. Bacterial counts can be determined by manual CFU counting. For determining antibacterial activity for instance 1×10^6 CFU/ml bacteria are used, for determining antifungal activity for instance 1×10^5 cells/ml are used.
as §2

Setting [8] is: 50% plasma, mid-logarithmic culture, median (Table 3).

For “Ac-IGKEFKRIVERIKRFLRELVRPLR-NH2 [OP-145, JIGKEFKRIVERIKRFLRELVRPLRB, reference compound]”, the 50% inhibitory concentration (IC50) was 0.195 µM in experiment [1]; 0.00015 µM in experiment [3] (diluted whole human blood, 20 hours); 0.781 µM in experiment [7]. The “concentration inhibiting A. niger growth” value with A. niger PagsA-lux (25% plasma, light micrographs only, 16 hours (FIG. 2)) came out at 204.8 µM. The “concentration inhibiting A. niger growth (by >99.9%)” value in the experiment with A. niger PagsA-lux (PBS, optical density (FIG. 1)) was 3.2 µM. The LC99.9 in experiment [2] (setting [8]) was 204.8 µM; in experiment [2] (methicillin resistant LUH14616), 1.6 µM; in experiment [4] (50% plasma, stationary suspension, mean of three experiments (Table 4)), greater than 204.8 µM; in [4] (stationary phase JAR060131), 1.6 µM; in [5] (setting [8]) it was 204.8 µM; in experiment [5] (RP62a), 0.8 µM. The LC99.9 was greater than 204.8 µM in experiment [6] (setting [8]); 3.2 µM in [6] (PAO1); 204.8 µM with S. aureus JAR060131 (50% plasma, mid-logarithmic culture, median of at least two experiments (Table 3)); 1.6 µM with S. aureus JAR060131 (JAR060131, 2 h). In addition, the 90% effect concentration (IC90) in experiment [3] (LPS-induced IL-12p40, blood from two donors) was found to be 1.25 nM. In addition, the “antifungal activity against C. albicans Y-O1 (in words)” value in the experiment on Candida albicans Y-O1 (50% plasma, at 204.8 μM) is recorded as “no antifungal activity was observed”; with Candida albicans Y-O1 (PBS, at 51.2 μM), “no antifungal activity”. The LC99 in the experiment with Candida albicans Y-O1 (50% plasma, mean of two experiments) is greater than 204.8 µM; in the experiment on Candida albicans Y-O1 (Y-O1, 2 h), greater than 51.2 µM. The IC99.9 in the experiment with S. aureus JAR060131 (50% plasma) was found to be 204.8 µM; with S. aureus JAR060131 (PBS), 1.6 µM.
